Measurements as given in article PMC4128046, “Effect of a toggle switch mutation in TM6 of the human adenosine A3 receptor on Gi protein-dependent signalling and Gi-independent receptor internalization” (British Journal of Pharmacology, 2014).

How the values were obtained:
Type in all cases: cell-based
A3-YFP = target: T1, A3-YFP (Homo sapiens, UniProt P0DMS8); assay: CRE-SPAP gene transcription assay, A3-YFP; details: A3-YFP cells; for agonist-mediated inhibition of SPAP production after PTx pre-incubation: PTx 100 ng·mL−1 overnight, 3 μM FSK; for Emax: read-out: Maximum response (% inhibition of 10 μM FSK), CRE-SPAP assay
T1 construct: cDNA encoding the full length human A3 receptor; expressed in transfected cells
T1 sequence (P0DMS8 1-318): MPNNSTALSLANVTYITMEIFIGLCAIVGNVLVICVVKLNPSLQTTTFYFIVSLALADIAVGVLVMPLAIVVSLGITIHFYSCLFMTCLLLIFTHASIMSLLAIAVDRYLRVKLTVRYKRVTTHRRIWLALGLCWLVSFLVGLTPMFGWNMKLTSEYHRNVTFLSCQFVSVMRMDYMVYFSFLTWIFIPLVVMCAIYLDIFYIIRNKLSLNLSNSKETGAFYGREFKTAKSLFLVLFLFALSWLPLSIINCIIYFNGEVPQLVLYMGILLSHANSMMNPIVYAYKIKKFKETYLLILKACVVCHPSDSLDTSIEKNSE
Protocol: One day before analysis, normal growth medium was removed from the cells and replaced with serum-free medium (DMEM/F12 containing 2 mM L-glutamine). Where applicable, PTx (100 ng·mL^−1) was added at this stage. On the day of the assay, the medium was removed and replaced with fresh serum-free medium containing the required concentration of the agonist, and cells were incubated for 1 h at 37°C/5% CO2. After 1 h, the required concentration of forskolin (FSK) was added, and cells were incubated for a further 5 h at 37°C/5% CO2. Following the 5 h incubation, all medium was removed from the cells, 40 μL of fresh serum-free medium was added to each well and cells incubated for a further 1 h at 37°C/5% CO2. The plates were then incubated at 65°C for 30 min, to destroy any endogenous alkaline phosphatases.
A basal and FSK control was included in each separate concentration-response CRE-SPAP gene transcription assay and cAMP accumulation assay to allow the responses in each cell line to be expressed as an inhibition of FSK-stimulated SPAP production.

[1] = target: T2, A3 W243F-vYc/β-arrestin2-vYnL (Homo sapiens, UniProt P0DMS8, W243F); assay: BiFC of receptor with β-arrestin2 (automated imaging), A3 W243F-vYc; details: A3 W243F-vYc/β-arrestin2-vYnL cells; for Maximal BiFC (%): percentage of 10 μM NECA in the cell line
T2 construct: cDNA encoding the full length human A3 receptor; expressed in transfected cells; host or cells: CHO-K1 stably expressing β-arrestin2-vYnL, stably co-transfected with A3 W243F-vYc

SNAP-A3 W243F = target: T3, SNAP-A3 W243F (Homo sapiens, UniProt P0DMS8, W243F); assay: Confocal imaging of SNAP-tagged receptor internalization, SNAP-A3 W243F; details: SNAP-A3 W243F transiently expressed in CHO CRE-SPAP cells, BG-AF488 label, 10 μM agonist
T3 construct: the methionine start signal was removed from cDNA encoding the full length A3; expressed in transfected cells; host or cells: CHO CRE-SPAP, transient (Fugene HD)
T3 sequence (P0DMS8 2-318 W243F limits assumed): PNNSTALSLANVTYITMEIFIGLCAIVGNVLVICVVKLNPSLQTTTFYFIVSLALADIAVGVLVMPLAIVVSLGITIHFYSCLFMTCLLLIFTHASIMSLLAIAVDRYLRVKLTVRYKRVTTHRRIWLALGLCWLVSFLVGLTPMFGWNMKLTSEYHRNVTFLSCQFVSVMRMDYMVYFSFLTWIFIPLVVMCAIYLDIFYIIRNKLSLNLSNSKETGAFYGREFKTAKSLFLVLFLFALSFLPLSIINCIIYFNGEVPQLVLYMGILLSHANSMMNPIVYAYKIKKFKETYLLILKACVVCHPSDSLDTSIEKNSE
Protocol: CHO-K1 cells stably expressing a cAMP response element-secreted placental alkaline phosphatase (CRE-SPAP) reporter gene (CHO CRE-SPAP) under hygromycin selectivity and CHO-K1 cells stably expressing β-arrestin2-vYnL (CHO β-arrestin2-vYnL, a gift from Dr. N. Holliday, University of Nottingham, Nottingham, UK) were maintained in DMEM/F12 medium containing 10% FCS and 2 mM L-glutamine at 37°C in a humidified atmosphere of air/CO2 (19:1). […] Cell lines were initially screened for YFP or bimolecular fluorescence complementation (BiFC) fluorescence and CRE-SPAP cells lines were subsequently tested in the CRE-SPAP gene transcription assay. […]
Live-cell BiFC imaging was performed on A3-vYc/β-arrestin2-vYnL and A3 W243F-vYc/β-arrestin2-vYnL cells grown in Nunc Labtek 8-well plates, and images obtained using a Zeiss 710 confocal microscope (Carl Zeiss GmbH, Jena, Germany) fitted with a 63× plan-Apochromat NA1.4 Ph3 oil-immersion objective. […] For both YFP, BiFC and BG-AF488 label, a 488 nm argon laser was used to excite the fluorophore and emission was detected using a BP505-530 filter. […] Images of A3-YFP and A3 W243F-YFP cells were taken with same pinhole diameter, laser power, gain and offset to allow comparison of YFP fluorescence. To obtain fluorescence intensity values, a region of interest was drawn around the plasma membrane of 10 cells per image in Zeiss AIM 4.2 software (Carl Zeiss GmbH).

T2 sequence (P0DMS8 whole entry W243F): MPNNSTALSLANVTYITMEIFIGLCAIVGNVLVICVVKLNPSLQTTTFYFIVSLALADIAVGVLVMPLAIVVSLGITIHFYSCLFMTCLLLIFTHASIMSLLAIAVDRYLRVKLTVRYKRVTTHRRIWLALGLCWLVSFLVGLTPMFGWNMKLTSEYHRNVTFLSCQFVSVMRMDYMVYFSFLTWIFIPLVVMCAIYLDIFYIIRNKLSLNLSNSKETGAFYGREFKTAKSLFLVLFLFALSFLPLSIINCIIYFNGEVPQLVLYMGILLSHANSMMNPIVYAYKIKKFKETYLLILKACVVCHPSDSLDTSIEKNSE
T2 sequence (P32121 whole entry partner): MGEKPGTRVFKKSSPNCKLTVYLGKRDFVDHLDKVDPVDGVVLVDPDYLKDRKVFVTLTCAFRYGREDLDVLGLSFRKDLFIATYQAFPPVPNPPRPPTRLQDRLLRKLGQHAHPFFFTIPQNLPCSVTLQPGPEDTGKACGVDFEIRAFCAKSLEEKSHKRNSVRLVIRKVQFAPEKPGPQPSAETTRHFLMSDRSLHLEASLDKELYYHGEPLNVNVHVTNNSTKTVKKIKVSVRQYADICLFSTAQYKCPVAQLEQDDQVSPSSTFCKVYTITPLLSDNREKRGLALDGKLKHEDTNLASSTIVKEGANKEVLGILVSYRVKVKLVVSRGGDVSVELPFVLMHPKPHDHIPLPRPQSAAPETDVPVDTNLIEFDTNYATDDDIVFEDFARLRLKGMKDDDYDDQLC

EC50 (A3-YFP; 5 h with FSK, read-out: pEC50 (CRE-SPAP assay) (converted))	% maximal internalization vs. 10 μM NECA at 2 h (BiFC) ([1]; 10 μM, 2 h)	EC50 ([1]; 60 min, read-out: pEC50 (BiFC with β-arrestin2-vYnL) (converted))	SMILES	agonist-mediated inhibition of SPAP production after PTx pre-incubation (A3-YFP)	Emax (A3-YFP)	Maximal BiFC (%) ([1]; 60 min)	internalization of SNAP-tagged receptor seen in confocal images (SNAP-A3 W243F)	SPAP production in the absence of FSK (Gs coupling) (A3-YFP; no FSK, with or without PTx)
3.02 nM	58.0 ± 5.8%	10.7 nM	CCCCC#Cc1nc(NC)c2ncn([C@@H]3O[C@H](CO)[C@@H](O)[C@H]3O)c2n1 [HEMADO, 2-(1-hexynyl)-N-methyladenosine]	no HEMADO-mediated response was observed	73.2 ± 7.7%	54.5 ± 6.1%	did not result in any clear change in the localization	
			CCNC(=O)[C@H]1O[C@@H](n2cnc3c(N)ncnc32)[C@H](O)[C@@H]1O [NECA, 5-(N-ethylcarboxamido)adenosine]	abolished	65.8 ± 8.2%	100%	retained the ability to cause internalization	no increase in SPAP production
